Experimental data: patent publication US10077261B2, “Imidazolin-5-one derivative useful as FASN inhibitors for the treatment of cancer” (Janssen Pharmaceutica NV, priority 2012, dated 2018)

Molecular target: T1, hFASN enzyme (full length) (Homo sapiens, UniProt P49327)
T1 construct: 10 μL hFASN enzyme (full length, 300 ng, purified in house); made in house
Assay: Fatty Acid Synthase (FASN) inhibition scintillation proximity assay
Assay type: biochemical
Details: for inhibition at 10 µM: read-out: Human FASN % inhibition @ 10 μM, 10 μM test compound; for IC50: read-out: Human FASN pIC50 (converted)
Procedure, shortened: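 Proximity read-out: hydrophobic ^3H-palmitate formed from ^3H-acetyl-CoA and malonyl-CoA binds streptavidin imaging beads, imaged at 610±20 nm at least 24 h after stopping. Enzyme was in-house purified full-length hFASN, 300 ng, in pH 7.5 phosphate/DTT buffer; compound series 30 μM down to 0.01 μM, normalized to controls, 4-parameter fit.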

T1 sequence (P49327 whole entry): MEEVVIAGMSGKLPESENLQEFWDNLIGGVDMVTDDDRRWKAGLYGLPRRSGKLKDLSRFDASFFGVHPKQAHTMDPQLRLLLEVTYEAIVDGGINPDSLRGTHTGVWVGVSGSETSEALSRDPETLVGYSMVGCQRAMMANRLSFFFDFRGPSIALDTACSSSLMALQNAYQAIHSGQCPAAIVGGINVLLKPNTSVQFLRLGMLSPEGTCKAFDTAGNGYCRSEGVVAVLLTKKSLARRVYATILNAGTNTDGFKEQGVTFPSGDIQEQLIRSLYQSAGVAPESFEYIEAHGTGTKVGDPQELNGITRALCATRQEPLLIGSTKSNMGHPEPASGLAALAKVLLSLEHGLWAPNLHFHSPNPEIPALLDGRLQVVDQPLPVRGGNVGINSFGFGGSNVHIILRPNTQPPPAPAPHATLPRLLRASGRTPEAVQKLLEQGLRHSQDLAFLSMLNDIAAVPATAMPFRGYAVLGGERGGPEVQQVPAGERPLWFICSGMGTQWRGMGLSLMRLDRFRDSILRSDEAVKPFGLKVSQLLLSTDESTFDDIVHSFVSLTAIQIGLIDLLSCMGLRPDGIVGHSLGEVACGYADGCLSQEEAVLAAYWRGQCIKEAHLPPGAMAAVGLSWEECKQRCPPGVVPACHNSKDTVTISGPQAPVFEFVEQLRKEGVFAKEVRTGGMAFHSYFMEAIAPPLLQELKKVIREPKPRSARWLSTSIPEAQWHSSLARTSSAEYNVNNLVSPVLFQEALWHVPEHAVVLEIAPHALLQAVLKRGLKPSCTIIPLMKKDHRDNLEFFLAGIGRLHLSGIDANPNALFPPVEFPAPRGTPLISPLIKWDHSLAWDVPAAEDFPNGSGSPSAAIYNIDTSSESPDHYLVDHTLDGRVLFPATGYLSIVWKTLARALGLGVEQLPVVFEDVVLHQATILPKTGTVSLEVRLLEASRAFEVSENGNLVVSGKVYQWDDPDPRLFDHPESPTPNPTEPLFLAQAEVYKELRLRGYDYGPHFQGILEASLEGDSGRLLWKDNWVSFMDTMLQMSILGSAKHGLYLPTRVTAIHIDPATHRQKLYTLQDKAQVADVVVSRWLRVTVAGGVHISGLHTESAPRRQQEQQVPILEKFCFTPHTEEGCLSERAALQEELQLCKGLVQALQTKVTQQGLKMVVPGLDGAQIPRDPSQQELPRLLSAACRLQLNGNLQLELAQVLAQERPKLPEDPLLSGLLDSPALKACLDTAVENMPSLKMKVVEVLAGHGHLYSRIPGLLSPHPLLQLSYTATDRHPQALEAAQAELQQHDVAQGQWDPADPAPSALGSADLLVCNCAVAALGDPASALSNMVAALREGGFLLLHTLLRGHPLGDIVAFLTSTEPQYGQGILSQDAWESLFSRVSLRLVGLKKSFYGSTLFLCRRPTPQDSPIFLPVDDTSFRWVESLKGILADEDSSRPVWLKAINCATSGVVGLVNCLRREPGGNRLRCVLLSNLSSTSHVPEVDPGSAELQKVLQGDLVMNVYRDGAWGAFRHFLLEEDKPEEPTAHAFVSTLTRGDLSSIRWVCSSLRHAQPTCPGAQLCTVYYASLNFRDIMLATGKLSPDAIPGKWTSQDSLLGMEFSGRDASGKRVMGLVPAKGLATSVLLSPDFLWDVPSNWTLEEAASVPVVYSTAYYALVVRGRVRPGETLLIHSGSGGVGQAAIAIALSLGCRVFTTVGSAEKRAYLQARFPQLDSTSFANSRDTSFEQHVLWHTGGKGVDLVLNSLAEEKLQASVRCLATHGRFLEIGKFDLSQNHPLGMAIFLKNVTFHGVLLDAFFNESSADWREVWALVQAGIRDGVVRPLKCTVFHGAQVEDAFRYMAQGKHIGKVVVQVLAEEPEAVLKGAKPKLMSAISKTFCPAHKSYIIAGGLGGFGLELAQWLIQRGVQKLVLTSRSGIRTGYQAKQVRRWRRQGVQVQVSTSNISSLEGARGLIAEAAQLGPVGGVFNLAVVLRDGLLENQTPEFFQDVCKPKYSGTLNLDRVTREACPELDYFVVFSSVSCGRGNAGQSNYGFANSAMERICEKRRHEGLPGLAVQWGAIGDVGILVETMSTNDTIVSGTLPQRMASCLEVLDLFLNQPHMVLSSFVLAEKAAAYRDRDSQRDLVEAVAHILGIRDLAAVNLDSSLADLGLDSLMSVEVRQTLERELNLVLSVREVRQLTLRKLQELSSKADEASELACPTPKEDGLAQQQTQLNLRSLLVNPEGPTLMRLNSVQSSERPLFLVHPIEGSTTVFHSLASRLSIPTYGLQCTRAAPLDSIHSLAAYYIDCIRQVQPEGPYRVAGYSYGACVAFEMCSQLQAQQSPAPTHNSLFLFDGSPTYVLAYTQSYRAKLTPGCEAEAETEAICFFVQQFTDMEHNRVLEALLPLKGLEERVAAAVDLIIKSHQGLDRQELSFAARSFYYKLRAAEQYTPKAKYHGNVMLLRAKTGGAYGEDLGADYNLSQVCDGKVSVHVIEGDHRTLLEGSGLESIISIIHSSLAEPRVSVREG

SMILES	inhibition at 10 µM	IC50
CC(=O)N1CCC2(CC1)N=C(c1ccc(-c3ccc4cnccc4c3)cc1)N(C[C@@H]1CCN(C(=O)C3CC3)C1)C2=O [compound 144, 8-Acetyl-3-{[(3R)-1-(cyclopropylcarbonyl)pyrrolidin-3-yl]methyl}-2-(4-isoquinolin-6-ylphenyl)-1,3,8-triazaspiro[4.5]dec-1-en-4-one]	117%	63.1 nM
CS(=O)(=O)N1CC(CN2C(=O)C3(CCOC3)N=C2c2ccc(-c3ccc4cccnc4c3)cc2)C1 (centres unmarked) [compound 942, 3-((1-(methylsulfonyl)azetidin-3-yl)methyl)-2-(4-(quinolin7-yl)phenyl)-7-oxa-1,3-diazaspiro[4.4]non-1-en-4-one]	11%	> 10000 nM
CC(C)N1CCC2(CC1)N=C(c1ccc(-c3ccc4[nH]ccc4c3)cc1)N(CC1CN(C(=O)C3CC3)C1)C2=O [compound 187, 3-{[1-(Cyclopropylcarbonyl)azetidin-3-yl]methyl}-2-[4-(1H-indol-5-yl)phenyl]-8-(1-methylethyl)-1,3,8-triazaspiro[4.5]dec-1-en-4-one]	96.5%	603 nM
O=C(C1CC1)N1CC[C@@H](CN2C(=O)C3(CCCC3)N=C2c2ccc(-c3ccc(-c4nn[nH]n4)cc3)cc2)C1 [compound 91, 3-{[(3R)-1-(Cycloprropylcarbonyl)pyrrolidin-3-yl]methyl}-2-[4′-(2H-tetrazol-5-yl)biphenyl-4-yl]-1,3-diazaspiro[4.4]non-1-en-4-one]	21.3%	> 10000 nM
Cc1cc2cc(-c3ccc(C4=NC5(CCN(C(=O)CN(C)C)CC5)C(=O)N4C[C@@H]4CCN(C(=O)C5CC5)C4)cc3)ccc2o1 [compound 174, 3-{[(3R)-1-(Cyclopropylcarbonyl)pyrrolidin-3-yl]methyl}-8-(N,N-dimethylglycyl)-2-[4-(2-methyl-1-benzofuran-5-yl)phenyl]-1,3,8-triazaspiro[4.5]dec-1-en-4-one]	109%	245 nM
COC(=O)N1CC2(C1)N=C(c1ccc(-c3ccc4cccnc4c3)cc1)N(C[C@@H]1CCN(C(=O)C(F)(F)F)C1)C2=O [compound 731, Methyl 8-oxo-6-(4-quinolin-7-ylphenyl)-7-{[(3R)-1-(trifluoroacetyl)pyrrolidin-3-yl]methyl}-2,5,7-triazaspiro[3.4]oct-5-ene-2-carboxylate]	63%	3800 nM
Cn1ncc2cc(-c3ccc(C4=NC5(CCOCC5)C(=O)N4CC4CN(S(C)(=O)=O)C4)cc3)ccc21 [compound 902, 2-(4-(1-methyl-1H-indazol-5-yl)phenyl)-3-((1-(methylsulfonyl)azetidin-3-yl)methyl)-8-oxa-1,3-diazaspiro[4.5]dec-1-en-4-one]	6%	> 10000 nM
CN(C)CC(=O)N1CCC2(CC1)N=C(c1ccc(-c3ccc4occc4c3)cc1)N(C[C@@H]1CCN(C(=O)C3CC3)C1)C2=O [compound 153, 2-[4-(1-Benzofuran-5-yl)phenyl]-3-{[(3R)-1-(cyclopropylcarbonyl)pyrrolidin-3-yl]methyl}-8-(N,N-dimethylglycyl)-1,3,8-triazaspiro[4.5]dec-1-en-4-one]	116%	105 nM
O=C(C1CC1)N1CCC(CN2C(=O)C3(CC3)N=C2c2ccc(-c3ccncc3)cc2)CC1 [compound 32, 6-{[1-(Cyclopropylcarbonyl)piperidin-4-yl]methyl}-5-(4-pyridin-4-ylphenyl)-4,6-diazaspiro[2.4]hept-4-en-7-one]	6.8%	> 10000 nM
Cn1ncc2cc(-c3ccc(C4=NC5(CCOCC5)C(=O)N4C[C@@H]4CCN(S(C)(=O)=O)C4)cc3)ccc21 [compound 926, (S)-2-(4-(1-methyl-1H-indazol-5-yl)phenyl)-3-((1-(methylsulfonyl)pyrrolidin-3-yl)methyl)-8-oxa-1,3-diazaspiro[4.5]dec-1-en-4-one]	-8%	> 10000 nM
COC(=O)N1CCC2(CC1)N=C(c1ccc(-c3ccc4occc4c3)cc1)N(CC1CN(C(=O)C3CC3)C1)C2=O [compound 16, Methyl 2-[4-(1-benzofuran-5-yl)phenyl]-3-{[1-(cyclopropylcarbonyl)azetidin-3-yl]methyl}-4-oxo-1,3,8-triazaspiro[4.5]dec-1-ene-8-carboxylate]	72.5%	1380 nM
CN(C)CC(=O)N1CCC2(CC1)N=C(c1ccc(-c3ccc4c(cnn4C)c3)cc1)N(C[C@@H]1CCN(C(=O)C3CC3)C1)C2=O [compound 141, 3-{[(3R)-1-(Cyclopropylcarbonyl)pyrrolidin-3-yl]methyl}-8-(N,N-dimethylglycyl)-2-[4-(1-methyl-1H-indazol-5-yl)phenyl]-1,3,8-triazaspiro[4.5]dec-1-en-4-one]	110%	251 nM
COC(=O)N1CC2(C1)N=C(c1ccc(-c3ccc4c(cnn4C)c3)cc1)N(C[C@@H]1CCN(S(C)(=O)=O)C1)C2=O [compound 917, (S)-methyl 6-(4-(1-methyl-1H-indazol-5-yl)phenyl)-7-((1-(methylsulfonyl)pyrrolidin-3-yl)methyl)-8-oxo-2,5,7-triazaspiro[3.4]oct-5-ene-2-carboxylate]	2%	> 10000 nM
O=C(C1CC1)N1CCC(CN2C(=O)C3(CC3)N=C2c2ccc(-c3cccc(O)c3)cc2)CC1 [compound 108, 6-{[1-(Cyclopropylcarbonyl)piperidin-4-yl]methyl}-5-(3′-hydroxybiphenyl-4-yl)-4,6-diazaspiro[2.4]hept-4-en-7-one]	83.8%	1510 nM
Cn1cc(-c2ccc(-c3ccc(C4=NC5(CCN(S(C)(=O)=O)CC5)C(=O)N4CC4CN(C(=O)C5CC5)C4)cc3)cc2)cn1 [compound 769, 3-{[1-(Cyclopropylcarbonyl)azetidin-3-yl]methyl}-2-[4′-(1-methyl-1H-pyrazol-4-yl)biphenyl-4-yl]-8-(methylsulfonyl)-1,3,8-triazaspiro[4.5]dec-1-en-4-one]	60%	5010 nM
CC(O)C(=O)N1CC[C@@H](CN2C(=O)C3(CCOCC3)N=C2c2ccc(-c3ccc4occc4c3)cc2)C1 (stereo partly drawn) [compound 668, 2-[4-(1-Benzofuran-5-yl)phenyl]-3-{[(3R)-1-(2-hydroxypropanoyl)pyrrolidin-3-yl]methyl}-8-oxa-1,3-diazaspiro[4.5]dec-1-en-4-one]	86%	1170 nM
Cn1ncc2cc(-c3ccc(C4=NC5(CC5)C(=O)N4CC4CN(C(=O)C5CC5)C4)cc3)cnc21 [compound 503, 6-{[1-(Cyclopropylcarbonyl)azetidin-3-yl]methyl}-5-[4-(1-methyl-1H-pyrazolo[3,4-b]pyridin-5-yl)phenyl]-4,6-diazaspiro[2.4]hept-4-en-7-one]	58%	5750 nM
Nc1cc(-c2ccc(C3=NC4(CC4)C(=O)N3CC3CN(C(=O)C4CC4)C3)cc2)ccc1O [compound 53, 5-(3′-Amino-4′-hydroxybiphenyl-4-yl)-6-{[1-(cyclopropylcarbonyl)azetidin-3-yl]methyl}-4,6-diazaspiro[2.4]hept-4-en-7-one]	78.6%	1950 nM
CS(=O)(=O)N1CC(CN2C(=O)C3(CCOCC3)N=C2c2ccc(-c3ccc4cccnc4c3)cc2)C1 [compound 912, 3-((1-(methylsulfonyl)azetidin-3-yl)methyl)-2-(4-(quinolin-7-yl)phenyl)-8-oxa-1,3-diazaspiro[4.5]dec-1-en-4-one]	1%	> 10000 nM
O=C(c1nccs1)N1CCC(CN2C(=O)C3(CCOC3)N=C2c2ccc(-c3ccc4occc4c3)cc2)C1 (centres unmarked) [compound 934, 2-(4-(benzofuran-5-yl)phenyl)-3-((1-(thiazole-2-carbonyl)pyrrolidin-3-yl)methyl)-7-oxa-1,3-diazaspiro[4.4]non-1-en-4-one]	27%	> 10000 nM
Cn1cc(-c2ccc(-c3ccc(C4=NC5(CCOC5)C(=O)N4CC4CN(C(=O)N5CCCC5)C4)cc3)cc2)cn1 (centres unmarked) [compound 713, 2-[4′-(1-Methyl-1H-pyrazol-4-yl)biphenyl-4-yl]-3-{[1-(pyrrolidin-1-ylcarbonyl)azetidin-3-yl]methyl}-7-oxa-1,3-diazaspiro[4.4]non-1-en-4-one]	59%	~6760 nM
CC(C)C(=O)N1CCC2(CC1)N=C(c1ccc(-c3ccc(-c4cnn(C)c4)cc3)cc1)N(CC1CN(C(=O)C3CC3)C1)C2=O [compound 767, 3-{[1-(Cycloprropylcarbonyl)azetidin-3-yl]methyl}-8-(2-methylpropanoyl)-2-[4′-(1-methyl-1H-pyrazol-4-yl)biphenyl-4-yl]-1,3,8-triazaspiro[4.5]dec-1-en-4-one]	76%	1910 nM
Cn1cc(-c2ccc(C3=NC4(CCCC4)C(=O)N3C[C@@H]3CCN(C(=O)C4CC4)C3)cc2)cn1 [compound 13, 3-{[(3R)-1-(Cyclopropylcarbonyl)pyrrolidin-3-yl]methyl}-2-[4-(1-methyl-1H-pyrazol-4-yl)phenyl]-1,3-diazaspiro[4.4]non-1-en-4-one]	29.7%	> 10000 nM
COC(=O)N1CC2(C1)N=C(c1ccc(-c3ccc4c(cnn4C)c3)cc1)N(C[C@@H]1CCN(C(=O)C(C)O)C1)C2=O (stereo partly drawn) [compound 738, Methyl 7-{[(3R)-1-(2-hydroxypropanoyl)pyrrolidin-3-yl]methyl}-6-[4-(1-methyl-1H-indazol-5-yl)phenyl]-8-oxo-2,5,7-triazaspiro[3.4]oct-5-ene-2-carboxylate]	80%	1910 nM
O=C(C1CC1)N1CC[C@@H](CN2C(=O)C3(CCN(CCO)CC3)N=C2c2ccc(-c3ccc4occc4c3)cc2)C1 [compound 168, 2-[4-(1-Benzofuran-5-yl)phenyl]-3-{[(3R)-1-(cyclopropylcarbonyl)pyrrolidin-3-yl]methyl}-8-(2-hydroxyethyl)-1,3,8-triazaspiro[4.5]dec-1-en-4-one]	108%	145 nM
